Measurements reported in ChEMBL document CHEMBL5331077, “Combining pharmacophore models derived from DNA-encoded chemical libraries with structure-based exploration to predict Tankyrase 1 inhibitors” (Eur J Med Chem, 2023).

Tests used:
[1] = biological target: T1, Poly [ADP-ribose] polymerase tankyrase-1 (Homo sapiens, UniProt O95271); test: Inhibition of TNKS1 (unknown origin) using biotinylated NAD as substrate preincubated for 30 mins followed by substrate addition and measured after 1 hr by BioTek synergy 2 microplate reader analysis
T1 sequence (O95271 whole entry): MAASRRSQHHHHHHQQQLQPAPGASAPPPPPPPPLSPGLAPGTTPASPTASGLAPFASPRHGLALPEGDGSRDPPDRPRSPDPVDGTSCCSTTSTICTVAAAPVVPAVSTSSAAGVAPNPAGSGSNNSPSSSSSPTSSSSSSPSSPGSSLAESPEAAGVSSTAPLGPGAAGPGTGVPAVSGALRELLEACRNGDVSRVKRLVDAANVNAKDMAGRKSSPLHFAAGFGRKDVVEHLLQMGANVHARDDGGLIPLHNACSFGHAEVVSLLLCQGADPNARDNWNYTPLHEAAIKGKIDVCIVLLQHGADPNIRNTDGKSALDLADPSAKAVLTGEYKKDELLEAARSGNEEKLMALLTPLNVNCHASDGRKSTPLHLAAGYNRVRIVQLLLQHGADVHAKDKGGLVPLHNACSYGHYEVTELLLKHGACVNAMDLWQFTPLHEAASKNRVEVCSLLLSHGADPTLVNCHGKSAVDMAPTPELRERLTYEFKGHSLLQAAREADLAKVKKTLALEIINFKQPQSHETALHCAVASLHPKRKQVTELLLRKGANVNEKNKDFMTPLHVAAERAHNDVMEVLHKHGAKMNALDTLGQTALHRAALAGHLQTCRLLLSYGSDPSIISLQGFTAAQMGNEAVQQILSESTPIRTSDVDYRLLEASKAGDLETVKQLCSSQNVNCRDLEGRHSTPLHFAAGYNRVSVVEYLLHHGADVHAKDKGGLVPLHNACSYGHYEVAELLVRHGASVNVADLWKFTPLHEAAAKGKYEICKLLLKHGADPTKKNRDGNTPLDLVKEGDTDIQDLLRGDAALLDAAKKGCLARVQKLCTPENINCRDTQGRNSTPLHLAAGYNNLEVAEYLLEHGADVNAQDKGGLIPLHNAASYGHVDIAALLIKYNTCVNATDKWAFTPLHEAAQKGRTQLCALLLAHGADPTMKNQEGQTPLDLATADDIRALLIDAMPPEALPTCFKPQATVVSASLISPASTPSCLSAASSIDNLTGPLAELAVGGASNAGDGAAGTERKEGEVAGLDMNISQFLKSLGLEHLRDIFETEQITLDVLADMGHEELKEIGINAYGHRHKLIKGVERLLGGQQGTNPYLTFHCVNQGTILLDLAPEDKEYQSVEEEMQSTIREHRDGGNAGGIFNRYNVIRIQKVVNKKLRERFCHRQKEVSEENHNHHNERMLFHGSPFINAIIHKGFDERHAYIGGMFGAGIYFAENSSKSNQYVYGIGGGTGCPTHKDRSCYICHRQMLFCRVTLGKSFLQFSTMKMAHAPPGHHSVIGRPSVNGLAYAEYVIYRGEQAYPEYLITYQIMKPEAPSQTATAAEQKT

[2] = biological target: T2, Poly [ADP-ribose] polymerase tankyrase-2 (Homo sapiens) (UniProt Q9H2K2); test: Inhibition of TNKS2 (unknown origin) at 0.5 uM relative to control
T2 sequence (whole entry): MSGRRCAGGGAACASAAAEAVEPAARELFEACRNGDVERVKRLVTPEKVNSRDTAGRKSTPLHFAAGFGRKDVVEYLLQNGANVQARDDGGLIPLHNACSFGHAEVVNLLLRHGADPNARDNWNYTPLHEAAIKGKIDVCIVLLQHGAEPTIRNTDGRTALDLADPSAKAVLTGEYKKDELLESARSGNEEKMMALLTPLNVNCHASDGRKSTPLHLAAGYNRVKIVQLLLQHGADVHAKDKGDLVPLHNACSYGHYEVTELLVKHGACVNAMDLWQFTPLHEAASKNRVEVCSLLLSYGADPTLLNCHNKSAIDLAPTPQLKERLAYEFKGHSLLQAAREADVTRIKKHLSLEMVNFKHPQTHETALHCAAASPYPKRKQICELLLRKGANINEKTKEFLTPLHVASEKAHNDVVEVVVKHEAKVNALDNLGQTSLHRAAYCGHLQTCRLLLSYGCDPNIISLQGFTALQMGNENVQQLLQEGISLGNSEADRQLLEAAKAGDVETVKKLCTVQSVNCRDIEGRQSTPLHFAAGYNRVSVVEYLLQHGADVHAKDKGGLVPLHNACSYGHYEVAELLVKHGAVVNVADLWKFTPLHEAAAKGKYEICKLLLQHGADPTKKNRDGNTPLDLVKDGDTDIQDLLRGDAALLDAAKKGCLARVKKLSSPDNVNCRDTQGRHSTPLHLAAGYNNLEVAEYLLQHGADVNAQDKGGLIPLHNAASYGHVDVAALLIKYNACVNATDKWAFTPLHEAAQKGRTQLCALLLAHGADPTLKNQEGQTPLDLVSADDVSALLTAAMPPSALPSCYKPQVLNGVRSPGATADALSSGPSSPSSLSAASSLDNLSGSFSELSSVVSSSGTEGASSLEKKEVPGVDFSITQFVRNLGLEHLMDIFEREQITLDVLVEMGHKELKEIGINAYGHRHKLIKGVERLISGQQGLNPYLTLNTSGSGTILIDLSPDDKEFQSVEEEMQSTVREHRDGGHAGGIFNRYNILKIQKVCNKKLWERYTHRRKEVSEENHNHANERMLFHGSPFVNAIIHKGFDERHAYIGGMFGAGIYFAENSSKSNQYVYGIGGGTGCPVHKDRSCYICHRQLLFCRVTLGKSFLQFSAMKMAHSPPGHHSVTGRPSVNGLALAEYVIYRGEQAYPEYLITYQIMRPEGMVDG

[3] = biological target: Poly [ADP-ribose] polymerase 1 (Homo sapiens) (UniProt P09874); test: Inhibition of human PARP1 at 50 nM relative to control
Chain of Poly [ADP-ribose] polymerase 1 (Homo sapiens) (P09874 whole entry): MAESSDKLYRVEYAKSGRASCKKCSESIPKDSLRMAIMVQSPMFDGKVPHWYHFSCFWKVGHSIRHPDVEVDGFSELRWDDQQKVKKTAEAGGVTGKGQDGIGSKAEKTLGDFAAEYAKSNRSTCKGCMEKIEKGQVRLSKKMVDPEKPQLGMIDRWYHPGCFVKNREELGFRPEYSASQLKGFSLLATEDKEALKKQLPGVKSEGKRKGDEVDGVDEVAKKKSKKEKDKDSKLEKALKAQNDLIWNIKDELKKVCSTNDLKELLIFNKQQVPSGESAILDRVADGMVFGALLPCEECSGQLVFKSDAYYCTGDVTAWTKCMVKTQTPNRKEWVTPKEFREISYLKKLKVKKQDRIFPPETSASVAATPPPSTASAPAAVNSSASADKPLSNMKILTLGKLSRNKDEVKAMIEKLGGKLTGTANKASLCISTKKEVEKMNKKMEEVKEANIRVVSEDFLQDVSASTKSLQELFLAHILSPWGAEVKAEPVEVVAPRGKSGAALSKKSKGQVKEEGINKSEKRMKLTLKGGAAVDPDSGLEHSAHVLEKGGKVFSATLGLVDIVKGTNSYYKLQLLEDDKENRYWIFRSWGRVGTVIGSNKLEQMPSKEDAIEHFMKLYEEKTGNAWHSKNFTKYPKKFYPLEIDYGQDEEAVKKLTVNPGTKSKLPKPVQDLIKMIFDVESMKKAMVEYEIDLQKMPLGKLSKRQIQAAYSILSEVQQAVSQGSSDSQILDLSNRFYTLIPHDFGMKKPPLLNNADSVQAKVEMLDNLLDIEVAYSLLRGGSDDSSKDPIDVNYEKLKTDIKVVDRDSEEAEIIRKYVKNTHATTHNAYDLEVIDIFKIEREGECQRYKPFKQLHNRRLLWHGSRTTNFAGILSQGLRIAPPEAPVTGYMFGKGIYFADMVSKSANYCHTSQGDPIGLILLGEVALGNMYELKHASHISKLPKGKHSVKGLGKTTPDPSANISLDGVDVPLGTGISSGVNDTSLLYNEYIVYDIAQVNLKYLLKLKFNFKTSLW

[4] = biological target: Poly [ADP-ribose] polymerase 2 (Homo sapiens) (UniProt Q9UGN5); test: Inhibition of human PARP2 at 0.5 uM relative to control
Chain of Poly [ADP-ribose] polymerase 2 (Homo sapiens) (Q9UGN5 whole entry): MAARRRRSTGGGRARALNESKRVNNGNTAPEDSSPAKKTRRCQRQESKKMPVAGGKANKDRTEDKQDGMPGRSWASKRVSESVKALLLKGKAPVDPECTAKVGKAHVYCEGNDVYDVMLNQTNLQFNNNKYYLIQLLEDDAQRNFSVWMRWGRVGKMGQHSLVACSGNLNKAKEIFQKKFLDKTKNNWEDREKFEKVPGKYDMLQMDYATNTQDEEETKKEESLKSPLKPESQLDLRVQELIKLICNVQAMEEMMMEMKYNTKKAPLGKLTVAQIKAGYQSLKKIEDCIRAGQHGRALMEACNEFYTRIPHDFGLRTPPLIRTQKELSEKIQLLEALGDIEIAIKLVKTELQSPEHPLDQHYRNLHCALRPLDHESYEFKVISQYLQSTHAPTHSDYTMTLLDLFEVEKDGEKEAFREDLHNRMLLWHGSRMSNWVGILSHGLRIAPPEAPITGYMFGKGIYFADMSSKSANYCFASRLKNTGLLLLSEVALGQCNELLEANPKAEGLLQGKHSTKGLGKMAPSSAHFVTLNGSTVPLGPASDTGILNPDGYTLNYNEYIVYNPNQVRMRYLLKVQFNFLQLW

[5] = biological target: T2, Poly [ADP-ribose] polymerase tankyrase-2 (Homo sapiens); test: Inhibition of TNKS2 (unknown origin) at 50 nM relative to control
[6] = biological target: Poly [ADP-ribose] polymerase 2 (Homo sapiens) (UniProt Q9UGN5); test: Inhibition of human PARP2 at 50 nM relative to control
[7] = biological target: Poly [ADP-ribose] polymerase 1 (Homo sapiens) (UniProt P09874); test: Inhibition of human PARP1 at 0.5 uM relative to control
[8] = biological target: T3, Poly [ADP-ribose] polymerase tankyrase-1 (Homo sapiens) (UniProt O95271); test: Inhibition of TNKS1 (unknown origin) at 10 uM using biotinylated NAD as substrate preincubated for 30 mins followed by substrate addition and measured after 1 hr by BioTek synergy 2 microplate reader analysis relative to control; conditions: time 90.0 min
T3 sequence (whole entry): T1 sequence (O95271 whole entry)

[9] = biological target: T3, Poly [ADP-ribose] polymerase tankyrase-1 (Homo sapiens); test: Inhibition of TNKS1 (unknown origin) at 100 nM using biotinylated NAD as substrate preincubated for 30 mins followed by substrate addition and measured after 1 hr by BioTek synergy 2 microplate reader analysis relative to control; conditions: time 90.0 min

IC50 [1] [µM]	inhibition [8] [%]	Compound	other results
–	74	O=C(NCc1ccc(-c2ccc3c(c2)CCCO3)cc1)c1nc2ccccc2c(=O)[nH]1	–
–	67	O=C(CCc1nc2ccccc2c(=O)[nH]1)Nc1ccc(-n2cnnn2)cc1	–
0.022	100	O=C(Cc1n[nH]c(=O)c2ccccc12)OCC(=O)N1CCN(c2ccccn2)CC1	inhibition [9]: 78%
–	0	O=C(Cn1cnc2ccccc2c1=O)N1CCC(c2nnc(-c3ccco3)s2)CC1	–
0.0083	–	O=C(CCn1c(=O)[nH]c(=O)c2ccccc21)NCCNC(=O)c1cnc2ccccc2c1	–
–	5	O[C@H](c1ccccc1)c1cn(C2CCN(Cc3cnc4ccccc4c3)CC2)nn1	–
–	35	O=C(Cc1n[nH]c(=O)c2ccccc12)Nc1ccc(Cc2nc3ccccc3s2)cc1	–

The remaining lines, values behind:

Compound	IC50 [1] [µM]	inhibition [8] [%]	other results
CC(=O)N1CCC[C@H]1C(=O)NCCNC(=O)Cn1[nH]c(=O)c2ccccc2c1=O	4.9	–	–
Cc1cnc(C(=O)NCCNC(=O)Cn2[nH]c(=O)c3ccccc3c2=O)cn1	0.047	–	inhibition [2]: 92%; inhibition [3]: 14%; inhibition [4]: 52%; inhibition [5]: 49%; inhibition [6]: 0%; inhibition [7]: 52%
Cc1ccc(C)c(NC(=O)CSc2nnc(Cc3cc(=O)[nH]c(=O)[nH]3)n2-c2ccc(Cl)cc2)c1	–	7	inhibition [9]: 0%
Cc1ccc2c(c1)NC(=O)C2CC(=O)NCCNC(=O)CCn1c(=O)[nH]c(=O)c2ccccc21 (stereo not drawn)	0.075	–	–
COc1ccc2c(c1)C(CC(=O)NCCNC(=O)CCn1c(=O)[nH]c(=O)c3ccccc31)CC2=O (stereo not drawn)	0.015	–	–
CNC(=O)[C@H](CNC(=O)Cn1[nH]c(=O)c2ccccc2c1=O)NC(=O)c1cnc(C)cn1	0.14	–	–
COc1ccc(C(N)=O)cc1NC(=O)c1cccc(-c2cnc3[nH]c(=O)n(C)c3c2)c1	–	97	inhibition [9]: 3%
O=C(NCCNC(=O)c1n[nH]c(=O)c2ccccc12)c1cccc(CN2C(=O)CNC2=O)c1	0.069	–	inhibition [2]: 93%; inhibition [3]: 17%; inhibition [4]: 53%; inhibition [5]: 49%; inhibition [6]: 3%; inhibition [7]: 47%
CNC(=O)[C@H](CNC(=O)c1cccc(COc2ccccc2C(N)=O)c1)NC(=O)COc1cc(C)cc2oc(=O)c3c(c12)CCC3	0.033	–	–
CC(=O)N1CCC[C@H]1C(=O)NCCNC(=O)CCn1c(=O)[nH]c(=O)c2ccccc21	26	–	–
